Data as given in ChEMBL document CHEMBL1137239, “Accurate prediction of the relative potencies of members of a series of kinase inhibitors using molecular docking and MM-GBSA scoring” (J Med Chem, 2006).

Target: T1, Aurora kinase A (Homo sapiens, UniProt O14965)
T1 sequence (O14965 whole entry): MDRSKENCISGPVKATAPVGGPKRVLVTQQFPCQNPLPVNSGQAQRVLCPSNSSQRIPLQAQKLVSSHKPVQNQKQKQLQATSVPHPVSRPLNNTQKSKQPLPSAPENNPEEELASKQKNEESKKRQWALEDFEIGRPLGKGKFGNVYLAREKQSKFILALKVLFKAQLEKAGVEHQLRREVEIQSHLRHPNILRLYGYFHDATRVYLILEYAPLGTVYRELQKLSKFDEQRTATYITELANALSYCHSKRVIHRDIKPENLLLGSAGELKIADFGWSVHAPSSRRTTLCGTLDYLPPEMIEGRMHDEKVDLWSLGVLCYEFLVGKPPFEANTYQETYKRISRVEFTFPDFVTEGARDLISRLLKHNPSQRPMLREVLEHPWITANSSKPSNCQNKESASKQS
Assay: Inhibition of Aurora A

Row | IC50 [nM] | SMILES
1 | 3900 | CCCN(CCC)S(=O)(=O)c1ncc(C(=O)Nc2ncc(Nc3ncnc4cc(OCCCN5CCOCC5)c(OC)cc34)cn2)cn1
2 | 0.8 | COc1cc2c(Nc3cnc(NC(=O)c4ccccc4)nc3)ncnc2cc1OC[C@@H](O)CN1CCCCC1
3 | 70 | COc1cc2c(Nc3cnc(NC(=O)c4ccc(Cc5ccccc5)c(Br)c4)nc3)ncnc2cc1OCCCN1CCOCC1
